# According to publication PMC8201173, “Inhibition of Carbonic Anhydrase IX Promotes Apoptosis through Intracellular pH Level Alterations in Cervical Cancer Cells” (International Journal of Molecular Sciences, 2021):
# How the values were obtained:
# Type in all cases: cell-based
# MDA-MB-231 = test: WST-1 cytotoxicity assay, MDA-MB-231; details: Homo sapiens
# Procedure: (§1) We used cancer and normal cell lines purchased from ATCC (American Type Culture Collection) and ECACC (European Collection of Authenticated Cell Cultures) and stored in liquid nitrogen.
# (§2) The cells were planted in 96 well plates (10^4 cells per well). […] WST-1 reactive of 10 µL was added in all wells. Following 4 h incubation, the measurements were carried out in a plate reader (Spectramax M5, BioTek, VT, USA) at wavelengths of 450 and 630 nm.
# HeLa cells [1] = test: Intracellular ROS detection (ROS Deep Red); details: ROS red dye, 0–200 μM, 1 h
# Procedure: Intracellular free radicals were measured using the Cellular Reactive Oxygen Species Detection Assay commercial kit (Abcam-186027, Cambridge, UK). In this kit, a fluorescence probe that is permeable to cells was used. When the probe reacts with ROS, it produces red fluorescence. According to the kit protocol, the cells were planted in black plates and incubated for 24 h. The compound E in PBS was administered at doses of 0–200 μM and incubated at 37 °C within an atmosphere of 5 % CO2 for 1 h (protected from light). After the compound E was poured out, the wells were filled with 100 µL of ROS Deep Red Working Solution, and then they were incubated at 37°C under an atmosphere of 5 % CO2 for 1 h. A fluorometry device (Spectramax M5, BioTek, VT, USA) Ex/Em: 650/675 nm (cut off: 665 nm) was used for the measuring.
# HeLa cells [2] = test: Western blot of apoptotic proteins and CAIX; details: 24 h
# Procedure: The cells were seeded on 6 cm^2 cell culture dishes and treated with the compound E at doses of 10–25–50 μM, for 24 h. The cells were then washed by cold PBS, which was followed by lysis with RIPA lysis tampon (10 mM Tris-HC1 pH:8.1 mM EDTA, 1 mM EGTA, 140 mM NaCl, 1% TritonX-100, 0.1 SDS, 0.1% Sodium deoxycholate), 1X phosphates, and protease inhibitor (Santa Cruz, Heidelberg, Germany). Acquired supernatant was centrifuged at 12,000× g for 10 min and transferred to new tubes. Protein concentration was detected using the protein assay kit BCA (Thermo Fisher Scientific, MA, USA). Following protein (50 µg) standing in 10% SDS-PAGE gel at 50 V for 30 min and 80 V for 3 h, the proteins were blotted to PVDF membrane at 70 V for 5 min (Bio-Rad Turbo Transfer System). After blocking in 1X TBST (12.1 gr Tris, pH 7.5, 70 gr NaCl, %0.1 Tween-20) containing 5% dry milk or 5% BSA, the primer monoclonal antibodies shown in Table 3 were administrated to the membrane overnight, which was followed by washing with 1 X TBS-T and incubation period with secondary antibodies HRP rabbit or mouse (1/10.000) for 60 min. The membrane was washed with 1 X TBS-T again. For band imaging, ECL substrate (EMD Millipore Corp., MA, USA) was used in the imaging system (LI-COR Odyssey Fc, NE, USA).
# HeLa cells [3] = test: Mitochondrial membrane potential (JC-1); details: JC-1 dye
# Procedure: Mitochondrial membrane potential (MMP) changes were spectrophotometrically detected. MMP was measured in a fluorometry device (Spectramax M5, BioTek, VT, USA) at wavelengths of 490 nm (excitation) and 530 nm (emission) in suitable conditions according to the manufacturer protocol (Sigma-Aldrich-CS0390, Germany).
# PNT1-A = test: WST-1 cytotoxicity assay, PNT1-A; details: Homo sapiens, PNT1A
# Procedure: We used cancer and normal cell lines purchased from ATCC (American Type Culture Collection) and ECACC (European Collection of Authenticated Cell Cultures) and stored in liquid nitrogen. HT-29 (ATCC: HTB-38, colon adenoma cancer), HeLa (ATCC: CCL-2, cervix adenoma cancer cell), MDA-MB-231 (ATCC: HTB-26, breast adenoma cancer cell), and HEK-293 (ATCC: CRL-1573, embryonic kidney epithelial cell) cell lines were incubated in DMEM-F12 (Sigma-Aldrich, Germany), including 10% Fetal Bovine Serum (FBS), 100 μg/mL streptomycin/100 IU/mL penicillin, at 37 °C in an incubator containing 5% CO2, 95% air in a humid atmosphere. PNT-1A (ECACC: 95012614, normal prostate cells) cell line was incubated in RPMI-1640 medium, including %10 FBS, 100 μg/mL streptomycin/100 IU/mL penicillin, at 37 °C in an incubator containing 5% CO2, 95% air in a humid atmosphere.
# The cytotoxic effects of compound E were evaluated with WST kit (Roche, Basel, Switzerland) in accordance with manufacturer protocols. The cells were planted in 96 well plates (10^4 cells per well). After 24 h of incubation, compound E at doses of 0, 2.5, 5, 10, 25, 50, 100, and 200 μM was administrated on the cell lines for 24, 48, and 72 h, and 5-FU on the control cell line with the same doses. WST-1 reactive of 10 µL was added in all wells. Following 4 h incubation, the measurements were carried out in a plate reader (Spectramax M5, BioTek, VT, USA) at wavelengths of 450 and 630 nm. Consequently, graphs were created, and the IC50 values of compound E and 5-fluorouracil were calculated. Selectivity index (SI) can be defined as the ratio of the toxic concentration of a sample against its effective compound concentration.
# HeLa cells [4] = test: Cell cycle analysis (PI staining, flow cytometry); details: for Cells in G2/M phase / Cells in S phase / Cells in G0/G1 phase: 72 h; for Cells in G2/M phase: WT 20.4%; for Cells in S phase: WT 23.2%; for Cells in G0/G1 phase: WT 56.6%
# Procedure: Cell cycle analysis was performed using BD Cycletest ™ Plus DNA Reagent kit (BD Biosciences, NJ, USA). […] The cells were raised with trypsin and centrifuged at 1500 rpm for 5 min. When a suspension was created by 1X binding buffer, 250 µL solution A was added and incubated in a light-free environment for 10 min, 200 µL solution B was added and incubated in light-free environment for 10 min, and 200 µL solution C was added and incubated at +4 °C in a protected-light environment for 10 min. All these analyses were performed by flow cytometry (BD Via, NJ, USA).
# HT-29 = test: WST-1 cytotoxicity assay, HT-29; details: Homo sapiens
# Procedure: as §1, §2
compound,measurement,setting,value
"NS(=O)(=O)c1ccc(CCNCc2cc(Br)ccc2O)cc1 [Compound E, 4-(2-((5-bromo-2-hydroxybenzyl)amino)ethyl) benzenesulphonamide]",IC50,"MDA-MB-231; MDA-MB-231, 24 h",1948 ± 4.65 µM
same,IC50,"MDA-MB-231; MDA-MB-231, 48 h",205 ± 3.55 µM
same,IC50,"MDA-MB-231; MDA-MB-231, 72 h",62.9 ± 10.3 µM
same,Intracellular ROS level,HeLa cells [1],amount of ROS increased in a manner dose-dependent
same,CAIX protein level,HeLa cells [2]; 25 µM,effective for inhibiton of CAIX protein
same,Cleaved PARP protein level,"HeLa cells [2]; 10 and 25 µM, vs WT",increased PARP protein level
same,"Cleaved caspase 3, 8, and 9 protein levels","HeLa cells [2]; 10–25–50 μM, vs WT",increased
same,Pro-caspase 3 protein level,"HeLa cells [2]; 10–25–50 μM, vs WT",decreased
same,Mitochondrial membrane potential (MMP),HeLa cells [3],disrupts mitochondrial membrane potential in HeLa cells
same,IC50,PNT1-A; 24 h,214 ± 9.3 µM
same,IC50,PNT1-A; 48 h,167 ± 11.4 µM
same,IC50,PNT1-A; 72 h,398 ± 10.4 µM
same,Cell cycle arrest,HeLa cells [4],arrested cell cycle of HeLa cells at the G0/G1 phase
same,Cells in G2/M phase,HeLa cells [4]; 10 µM,22.3%
same,Cells in S phase,HeLa cells [4]; 10 µM,19.3%
same,Cells in G0/G1 phase,HeLa cells [4]; 10 µM,56.8%
same,Cells in G2/M phase,HeLa cells [4]; 25 µM,17.9%
same,Cells in S phase,HeLa cells [4]; 25 µM,14.6%
same,Cells in G0/G1 phase,HeLa cells [4]; 25 µM,66.5%
same,Cells in G2/M phase,HeLa cells [4]; 50 µM,19.3%
same,Cells in S phase,HeLa cells [4]; 50 µM,10.8%
same,Cells in G0/G1 phase,HeLa cells [4]; 50 µM,68.8%
same,IC50,"HT-29; HT-29, 24 h",89.3 ± 12.2 µM
same,IC50,"HT-29; HT-29, 48 h",42.9 ± 16.3 µM
same,IC50,"HT-29; HT-29, 72 h",83.3 ± 17.4 µM
